Test results from PubChem BioAssay (NCI).
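Cultured in 96-well plates, cells were exposed to test compound for 48 hours across five concentrations. GI50 marks 50% less growth. TGI marks complete inhibition of growth.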

What was measured:
Experiment in all cases: growth of human tumour cells (NCI), 48 h
[1] = test system: IGROV1 ovarian
[2] = test system: SW-620 colon
[3] = test system: SF-268 CNS
[4] = test system: MDA-MB-435
[5] = test system: OVCAR-4 ovarian
[6] = test system: SNB-75 CNS
[7] = test system: HCC-2998 colon
[8] = test system: SK-MEL-5 melanoma
[9] = test system: CCRF-CEM leukemia
[10] = test system: SK-MEL-2 melanoma

| Structure (SMILES) | GI50 [1] [µM] | TGI [1] [µM] | GI50 [2] [µM] | TGI [2] [µM] | GI50 [3] [µM] | TGI [3] [µM] | GI50 [4] [µM] | TGI [4] [µM] | GI50 [5] [µM] | TGI [5] [µM] | GI50 [6] [µM] | TGI [6] [µM] | GI50 [7] [µM] | TGI [7] [µM] | GI50 [8] [µM] | TGI [8] [µM] | GI50 [9] [µM] | TGI [9] [µM] | GI50 [10] [µM] | TGI [10] [µM] |
| --- | --- | --- | --- | --- | --- | --- | --- | --- | --- | --- | --- | --- | --- | --- | --- | --- | --- | --- | --- | --- |
| C=C(NC(=O)C(=C)NC(=O)c1csc(C2=NC3c4csc(n4)C4NC(=O)c5csc(n5)C(C(C)(O)C(C)O)NC(=O)C5CSC(=N5)C(=CC)NC(=O)C(C(C)O)NC(=O)c5csc(n5)C3(CC2)NC(=O)C(C)NC(=O)C(=C)NC(=O)C(C)NC(=O)C(C(C)CC)NC2C=Cc3c(C(C)O)cc(nc3C2O)C(=O)OC4C)n1)C(N)=O (configuration not stated) | 64.8 | > 100 | 2.73 | > 100 | 19.6 | > 100 | 3.96 | > 100 | 9.45 | > 100 | 8.12 | 83.7 | 28.8 | > 100 | 4.69 | 19.8 | 1.83 | 5.24 | 19 | > 100 |
| CNC(=O)c1ccc(N2C(=S)N(c3ccc(C#N)c(C(F)(F)F)c3)C(=O)C2(C)C)cc1F | 40.3 | > 100 | > 52.6 | > 100 | > 52.3 | > 100 | 41.9 | > 79.3 | 31.8 | > 100 | 42.2 | > 79.9 | > 40.7 | > 65.8 | 20.3 | 50 | 30 | > 100 | 36.2 | > 71.9 |
| CCN(Cc1ccccc1)c1ccc(CO)c(Cl)c1 | 0.112 | 0.934 | 1.27 | > 100 | 26.7 | > 70.6 | 21.4 | 77.8 | 0.416 | 12.1 | 13.6 | 69.7 | 8.33 | 34.5 | 5.83 | 28.7 | 23.3 | > 100 | 3.79 | 24.7 |
| COc1cccc(/C=C/[N+](=O)[O-])c1 | 2.4 | 6.51 | 1.97 | 4.27 | 5.64 | 21.4 | 2.69 | 9.28 | 15.5 | 36.9 | 12.4 | 27.9 | 1.93 | 3.51 | 10.5 | 22.5 | 2.8 | 7.32 | 17.4 | 35.9 |
| CC(C)C[C@H](NC(=O)Cn1ccc(NCc2ccccc2)cc1=O)B(O)O | 8.05 | 54.7 | 0.557 | > 28.6 | 3.57 | 27.5 | 0.335 | 1.29 | 4.59 | > 100 | 2.33 | 9.72 | 2.21 | 5.73 | 0.678 | 2.89 | 0.511 | > 100 | 1.85 | 14.8 |
| COc1cc2ncn(-c3cc(O[C@@H](C)c4ccccc4Cl)c(C(N)=O)s3)c2cc1OC | 3.69 | > 25 | 0.612 | > 25 | 1.61 | > 25 | 0.146 | > 25 | 3.53 | > 25 | 3.86 | > 25 | 2.55 | > 25 | 0.247 | 5.26 | 0.107 | > 10.5 | 1.58 | > 25 |
| O=c1cc(N2CCN(CCCCCOc3cc(O)c4c(=O)cc(-c5ccccc5)oc4c3)CC2)c2ccccc2o1 | 47.4 | > 100 | > 100 | > 100 | > 100 | > 100 | 47.2 | > 100 | 62.7 | > 100 | > 100 | > 100 | 48.3 | > 100 | 28 | > 100 | 19.3 | > 100 | > 100 | > 100 |
| COc1ccc(-c2cc(-c3cccn3C)c(C#N)c(=O)[nH]2)cc1OC | 91.7 | > 100 | > 100 | > 100 | > 100 | > 100 | > 100 | > 100 | > 100 | > 100 | 24.2 | > 100 | 88.7 | > 100 | > 100 | > 100 | 5.02 | > 100 | > 100 | > 100 |
| C/C(=N\Nc1cc(C)c2ccccc2n1)c1ccccn1 | – | 1.49 | – | 1.98 | 0.0433 | 1.71 | 0.21 | 1.75 | – | 2.22 | 0.212 | 5.4 | < 0.0445 | 2.15 | 0.13 | 1.28 | < 0.0269 | 0.571 | 0.357 | 11.1 |
| CNC(=S)NC(=O)c1c(Cl)n(C(=O)OC(C)(C)C)c2ccccc12 | 21 | > 100 | 79.2 | > 100 | 72.8 | > 100 | 44 | > 100 | > 100 | > 100 | 96 | > 100 | 27.6 | > 100 | 28.1 | > 100 | 35.4 | > 100 | > 100 | > 100 |
| N#Cc1ccc2c(c1)C(=O)c1c-2n(CCCCl)c(=O)c2cc([N+](=O)[O-])ccc12 | 3.95 | 53.3 | 0.801 | > 100 | 1.49 | > 100 | > 100 | > 100 | 60.8 | > 100 | 3.51 | 11.5 | 12 | > 100 | 5.07 | 71.5 | 0.589 | 10.7 | 16.9 | 54.1 |
| C=C1C(=O)O[C@H]2[C@H]1CC/C(COC(=O)c1cc3ccccc3o1)=C\CC[C@@]1(C)O[C@@H]21 | 1.39 | 3.23 | 0.662 | 2.49 | 1.56 | 3.27 | 1.43 | 2.9 | 1.56 | 3.98 | 1.34 | 3.18 | 2.47 | 5.84 | 1.52 | 2.89 | 0.335 | 4.03 | 1.77 | 3.81 |
| O=c1ccs[nH]1 | – | 66.5 | – | 50.1 | – | 35.4 | – | 31 | – | 32.5 | – | 36.5 | – | 8.02 | – | 46.5 | – | 17.2 | – | 61.3 |
| Cc1ccc2c(-c3ccnc(Nc4ccccc4)n3)c(-c3ccc(F)cc3)nn2n1 | 1.13 | 16.5 | 8.37 | > 25 | 11.1 | > 25 | 6.83 | > 25 | 11.1 | > 25 | > 8.35 | > 25 | 7.03 | 22.6 | 4.75 | 11.4 | 5.81 | > 25 | 7.67 | 17.4 |
| NC[C@H]1Nc2ccccc2[C@@H](O)C1O (some centres not stated) | – | > 100 | – | > 100 | – | > 100 | – | > 100 | – | > 100 | – | > 100 | – | > 100 | – | > 100 | – | > 100 | – | > 100 |
